What was measured:
[1] = target: T1, Bone morphogenetic protein 1 (Homo sapiens, UniProt P13497); assay: Inhibition of recombinant human N-terminal 6His/flag-tagged BMP1 (121 to 721 residues) expressed in CHO cells using ((5-FAM)-ELIDQYDVQRDDSSDGSLED-K(5,6 TAMRA)-CONH2) as substrate preincubated for 10 mins followed by substrate addition measured after 60 mins
T1 sequence (P13497 whole entry): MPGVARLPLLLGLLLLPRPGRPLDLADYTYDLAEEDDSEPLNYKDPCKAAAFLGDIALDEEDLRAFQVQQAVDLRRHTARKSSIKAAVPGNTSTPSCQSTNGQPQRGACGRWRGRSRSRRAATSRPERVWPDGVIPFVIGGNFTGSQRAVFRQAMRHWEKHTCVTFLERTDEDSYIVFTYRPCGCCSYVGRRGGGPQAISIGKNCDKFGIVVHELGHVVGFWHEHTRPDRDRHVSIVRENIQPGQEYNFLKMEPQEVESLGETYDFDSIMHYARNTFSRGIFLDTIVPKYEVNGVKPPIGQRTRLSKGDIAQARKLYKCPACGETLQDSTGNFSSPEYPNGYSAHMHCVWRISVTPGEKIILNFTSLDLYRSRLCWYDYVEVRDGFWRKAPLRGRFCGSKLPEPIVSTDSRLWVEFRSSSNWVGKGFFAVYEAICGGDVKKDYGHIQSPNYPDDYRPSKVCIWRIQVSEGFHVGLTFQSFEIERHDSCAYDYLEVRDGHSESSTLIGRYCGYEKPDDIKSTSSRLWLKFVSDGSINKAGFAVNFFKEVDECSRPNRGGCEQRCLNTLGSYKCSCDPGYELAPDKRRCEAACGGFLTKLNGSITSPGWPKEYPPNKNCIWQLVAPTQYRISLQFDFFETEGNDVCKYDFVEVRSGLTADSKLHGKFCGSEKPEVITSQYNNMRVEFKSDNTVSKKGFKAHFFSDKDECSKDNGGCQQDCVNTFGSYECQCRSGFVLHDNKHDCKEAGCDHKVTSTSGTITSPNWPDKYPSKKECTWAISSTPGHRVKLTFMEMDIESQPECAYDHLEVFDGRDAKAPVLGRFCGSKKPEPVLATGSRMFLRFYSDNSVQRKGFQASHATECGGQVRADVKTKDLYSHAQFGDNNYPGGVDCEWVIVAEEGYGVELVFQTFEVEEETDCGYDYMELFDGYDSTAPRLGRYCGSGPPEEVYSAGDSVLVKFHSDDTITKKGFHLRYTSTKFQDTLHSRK

[2] = target: T2, Bone morphogenetic protein 1 (Homo sapiens) (UniProt P13497); assay: Binding affinity to BMP1 (unknown origin) assessed as association rate constant using ((5-FAM)-ELIDQYDVQRDDSSDGSLED-K(5,6 TAMRA)-CONH2 as substrate by FRET based stopped-flow spectrofluorometric method
T2 sequence (whole entry): T1 sequence (P13497 whole entry)

[3] = target: T3, Tolloid-like protein 1 (Homo sapiens, UniProt O43897); assay: Binding affinity to TLL1 (unknown origin) using ((5-FAM)-ELIDQYDVQRDDSSDGSLED-K(5,6 TAMRA)-CONH2 as substrate incubated for 3.5 hrs followed by substrate addition by FRET assay
T3 sequence (O43897 whole entry): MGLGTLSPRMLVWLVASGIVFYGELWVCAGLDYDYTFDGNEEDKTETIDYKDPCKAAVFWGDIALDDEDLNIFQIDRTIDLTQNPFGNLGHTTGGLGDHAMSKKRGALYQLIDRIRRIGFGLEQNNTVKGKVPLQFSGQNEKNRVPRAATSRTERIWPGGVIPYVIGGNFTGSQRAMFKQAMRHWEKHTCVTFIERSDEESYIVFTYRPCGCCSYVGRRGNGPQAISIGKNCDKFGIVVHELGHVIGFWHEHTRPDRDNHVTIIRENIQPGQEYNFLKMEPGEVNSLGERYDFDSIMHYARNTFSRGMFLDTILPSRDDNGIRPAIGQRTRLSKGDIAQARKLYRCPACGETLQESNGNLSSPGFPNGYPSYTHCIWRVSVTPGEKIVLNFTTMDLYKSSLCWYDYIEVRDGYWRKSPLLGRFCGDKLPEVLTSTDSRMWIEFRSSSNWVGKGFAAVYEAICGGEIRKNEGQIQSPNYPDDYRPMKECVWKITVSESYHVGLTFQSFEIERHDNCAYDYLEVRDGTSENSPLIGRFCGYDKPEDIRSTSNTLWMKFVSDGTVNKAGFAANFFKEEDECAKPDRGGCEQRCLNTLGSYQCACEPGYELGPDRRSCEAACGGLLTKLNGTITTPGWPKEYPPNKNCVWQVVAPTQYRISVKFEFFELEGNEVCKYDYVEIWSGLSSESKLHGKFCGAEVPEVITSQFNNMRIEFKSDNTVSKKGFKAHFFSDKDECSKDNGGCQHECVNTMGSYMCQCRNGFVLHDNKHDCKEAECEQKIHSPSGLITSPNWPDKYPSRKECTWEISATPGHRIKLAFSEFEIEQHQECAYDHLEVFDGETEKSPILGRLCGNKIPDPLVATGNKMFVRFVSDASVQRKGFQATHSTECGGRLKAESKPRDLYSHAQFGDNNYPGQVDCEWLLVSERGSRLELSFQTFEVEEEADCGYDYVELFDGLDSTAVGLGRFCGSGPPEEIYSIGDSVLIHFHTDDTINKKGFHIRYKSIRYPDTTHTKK

[4] = target: T4, Tolloid-like protein 2 (Homo sapiens, UniProt Q9Y6L7); assay: Binding affinity to TLL2 (unknown origin) using ((5-FAM)-ELIDQYDVQRDDSSDGSLED-K(5,6 TAMRA)-CONH2 as substrate incubated for 3.5 hrs followed by substrate addition by FRET assay
T4 sequence (Q9Y6L7 whole entry): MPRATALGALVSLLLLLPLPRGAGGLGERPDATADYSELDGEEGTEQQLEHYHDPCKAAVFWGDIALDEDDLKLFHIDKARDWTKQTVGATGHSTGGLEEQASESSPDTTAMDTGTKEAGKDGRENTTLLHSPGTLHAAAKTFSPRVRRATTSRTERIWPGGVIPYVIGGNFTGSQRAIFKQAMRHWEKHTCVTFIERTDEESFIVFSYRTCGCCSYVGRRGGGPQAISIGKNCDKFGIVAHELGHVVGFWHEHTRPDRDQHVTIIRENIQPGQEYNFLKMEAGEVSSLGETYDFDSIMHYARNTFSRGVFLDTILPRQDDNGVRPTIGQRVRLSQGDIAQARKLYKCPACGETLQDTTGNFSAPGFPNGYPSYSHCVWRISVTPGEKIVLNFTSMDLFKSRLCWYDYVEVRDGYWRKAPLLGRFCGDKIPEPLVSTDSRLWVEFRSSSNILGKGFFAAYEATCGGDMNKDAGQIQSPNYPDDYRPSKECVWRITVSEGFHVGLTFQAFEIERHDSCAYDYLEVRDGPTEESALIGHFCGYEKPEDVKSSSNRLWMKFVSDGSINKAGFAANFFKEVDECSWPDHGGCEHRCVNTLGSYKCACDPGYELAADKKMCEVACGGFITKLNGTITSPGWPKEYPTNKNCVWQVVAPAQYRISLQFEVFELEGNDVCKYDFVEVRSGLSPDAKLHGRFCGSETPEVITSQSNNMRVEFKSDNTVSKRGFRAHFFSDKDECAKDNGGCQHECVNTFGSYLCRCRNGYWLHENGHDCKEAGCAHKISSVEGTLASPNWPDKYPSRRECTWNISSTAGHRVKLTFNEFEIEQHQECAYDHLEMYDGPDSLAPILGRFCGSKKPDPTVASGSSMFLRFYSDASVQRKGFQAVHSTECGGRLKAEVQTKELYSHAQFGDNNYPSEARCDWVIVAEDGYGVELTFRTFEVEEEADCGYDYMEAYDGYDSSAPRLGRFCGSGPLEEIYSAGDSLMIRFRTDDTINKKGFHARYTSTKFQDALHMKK

[5] = target: T2, Bone morphogenetic protein 1 (Homo sapiens); assay: Binding affinity to BMP1 (unknown origin) assessed as dissociation rate constant using ((5-FAM)-ELIDQYDVQRDDSSDGSLED-K(5,6 TAMRA)-CONH2 as substrate preincubated for 0.5 hrs followed by substrate addition measured over 4 hrs by rapid jump dilution method
[6] = tested on: Canis familiaris; assay: Dose normalized AUC in subcutaneously dosed dog; assay type: ADME, organism-based, Canis lupus familiaris; conditions: in vivo, sc
[7] = target: T1, Bone morphogenetic protein 1; assay: Binding affinity to BMP1 (unknown origin) using ((5-FAM)-ELIDQYDVQRDDSSDGSLED-K(5,6 TAMRA)-CONH2 as substrate preincubated for 3 hrs followed by substrate addition measured for 120 mins by FRET assay
[8] = tested on: Rattus norvegicus; assay: Dose normalized AUC in subcutaneously dosed rat; assay type: ADME, organism-based; conditions: in vivo, sc
[9] = Mean residence time in sc dosed dog; assay type: ADME, organism-based, Canis lupus familiaris; conditions: in vivo
[10] = Mean residence time in sc dosed rat; assay type: ADME, organism-based; conditions: in vivo
[11] = target: T2, Bone morphogenetic protein 1 (Homo sapiens); assay: Binding affinity to BMP1 (unknown origin) assessed as half life using ((5-FAM)-ELIDQYDVQRDDSSDGSLED-K(5,6 TAMRA)-CONH2 as substrate preincubated for 0.5 hrs followed by substrate addition measured over 4 hrs by rapid jump dilution method
[12] = target: Macrophage metalloelastase (Homo sapiens, UniProt P39900); assay: Inhibition of MMP12 (unknown origin)
Chain of Macrophage metalloelastase (P39900 whole entry): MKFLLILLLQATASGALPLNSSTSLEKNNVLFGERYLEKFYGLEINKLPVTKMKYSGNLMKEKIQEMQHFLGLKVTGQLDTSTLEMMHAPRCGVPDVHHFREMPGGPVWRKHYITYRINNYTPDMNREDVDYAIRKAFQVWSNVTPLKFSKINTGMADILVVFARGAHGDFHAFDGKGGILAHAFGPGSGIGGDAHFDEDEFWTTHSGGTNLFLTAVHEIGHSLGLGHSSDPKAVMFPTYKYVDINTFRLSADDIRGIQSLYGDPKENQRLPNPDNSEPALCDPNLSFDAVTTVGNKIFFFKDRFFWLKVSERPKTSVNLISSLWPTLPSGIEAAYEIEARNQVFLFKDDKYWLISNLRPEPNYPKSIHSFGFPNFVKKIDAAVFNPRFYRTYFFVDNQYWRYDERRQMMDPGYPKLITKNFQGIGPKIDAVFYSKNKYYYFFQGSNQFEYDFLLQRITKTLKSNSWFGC

Row | SMILES | IC50 [1] | IC50 [12] | other results
1 | COc1cccc2cc(C(=O)NCNC(=O)CCN(O)C=O)oc12 | 6300 nM | > 10000 nM | 
2 | CCCCC[C@H](CN(O)C=O)C(=O)NCNC(=O)c1ccc(-c2cccc(OC)c2)o1 | 20 nM |  | 
3 | CCCCC[C@H](CN(O)C=O)C(=O)NCNC(=O)c1cc2cccc(OC)c2o1 | 160 nM | 400 nM | 
4 | CCCCC[C@@H](C(=O)NCNC(=O)c1cc2cccc(OC)c2o1)[C@@H](CC)N(O)C=O | 126 nM | > 10000 nM | 
5 | CCC[C@H](CN(O)C=O)C(=O)NCNC(=O)c1cc2cccc(OC)c2o1 | 1250 nM | 1250 nM | 
6 | CCCCC[C@H](CN(O)C=O)C(=O)NCNC(=O)c1ccc(-c2cccc(C(=O)O)c2)o1 | 8 nM |  | 
7 | COc1cccc2cc(C(=O)NCNC(=O)[C@H](Cc3ccccc3)CN(O)C=O)oc12 | 160 nM | 4000 nM | 
8 | CCCCC[C@@H](C(=O)NCNC(=O)c1cc2cccc(OC)c2o1)[C@H](CC)N(O)C=O | > 10000 nM | 200 nM | 
9 | CCCCC[C@@H](CN(O)C=O)C(=O)NCNC(=O)c1cc2cccc(OC)c2o1 | 4000 nM | > 10000 nM | 
10 | CCCCC[C@H](CN(O)C=O)C(=O)NCNC(=O)c1ccc(-c2ccccc2)o1 | 25 nM |  | 

The next compounds have a lower IC50 [1] than those just listed; values first:

Row | IC50 [1] | IC50 [12] | SMILES | other results
11 | < 1 nM |  | CCCCC[C@@H](C(=O)NCNC(=O)c1ccc(-c2cc(OCC)cc(P(=O)(O)O)c2)o1)[C@@H](CC)N(O)C=O | K [2]: 3.6e+06 M⁻¹ s⁻¹; Ki [3]: 0.24 nM; Ki [4]: 0.26 nM; K [5]: 0.93 h⁻¹; AUC/dose [6]: 5 kg·h/L; Ki [7]: 0.04 nM; AUC/dose [8]: 2.3 kg·h/L; MRT [9]: > 2 h; MRT [10]: > 2 h; T1/2 [11]: 0.75 h
12 | 1 nM |  | CCCCC[C@H](CN(O)C=O)C(=O)NCNC(=O)c1ccc(-c2cccc(OCC)c2)o1 | 
13 | < 1 nM |  | CCCCC[C@@H](C(=O)NCNC(=O)c1ccc(-c2ccc(C(=O)N[C@@H](CC(=O)O)C(=O)O)c(OCC)c2)o1)[C@@H](CC)N(O)C=O | K [2]: 5.5e+07 M⁻¹ s⁻¹; Ki [3]: 0.031 nM; Ki [4]: 0.039 nM; K [5]: 2.3 h⁻¹; AUC/dose [6]: 0.85 kg·h/L; Ki [7]: 0.0068 nM; AUC/dose [8]: 0.27 kg·h/L; MRT [9]: > 2 h; MRT [10]: > 2 h; T1/2 [11]: 0.3 h
14 | < 1 nM |  | CCCCC[C@@H](C(=O)NCNC(=O)c1ccc(-c2ccc(P(=O)(O)O)c(OCC)c2)o1)[C@@H](CC)N(O)C=O | 
15 | < 1 nM |  | CCCCC[C@@H](C(=O)NCNC(=O)c1ccc(-c2cc(OCC)cc(C(=O)O)c2)o1)[C@@H](CC)N(O)C=O | 
16 | 1 nM |  | CCCCC[C@H](CN(O)C=O)C(=O)NCNC(=O)c1ccc(-c2ccc(C(=O)O)cc2)o1 | 
17 | < 1 nM |  | CCCCC[C@@H](C(=O)NCNC(=O)c1ccc(-c2ccc(C(=O)O)c(OCC)c2)o1)[C@@H](CC)N(O)C=O | 
18 | < 1 nM |  | CCCCC[C@@H](C(=O)NCNC(=O)c1ccc(-c2cc(OCC)cc(C(=O)N[C@@H](CC(=O)O)C(=O)O)c2)o1)[C@@H](CC)N(O)C=O | 

From ChEMBL document CHEMBL4196124, “Reverse Hydroxamate Inhibitors of Bone Morphogenetic Protein 1” (ACS Med Chem Lett, 2018)
